The text below walks through data of ChEMBL document CHEMBL6074705, “Novel Triazines as NLRP3 Inhibitors for Treating Multiple Diseases” (ACS Med Chem Lett, 2024).

The structures appear in SMILES notation.

The nature of this experiment: Inhibition of NLRP3 inflammasome activation in PMA-treated human THP-1 cells assessed as ASC-SPECK formation preincubated for 1 hr followed by gramicidin addition and measured after 3 hrs by immunofluorescence staining based assay. The class given is cell-based.
For `Cc1nc(N2CC[C@]3(C)CCN(C)C[C@]23C)nnc1-c1ccc(Cl)cc1O`, the EC50 – broadly, the midpoint of the concentration-response curve – was found to be 4 nM. As for `Cc1nc(N2CC[C@]3(C)CCN(C)C[C@]23C)nnc1-c1ccc(C2CC2)cc1O`, the figure is 7 nM. As for `CCN1CC[C@@]2(C)CCN(c3nnc(-c4ccc(C(F)(F)F)cc4O)c(C)n3)[C@@]2(C)C1`, the figure is 5 nM; as for `Cc1cc(O)c(-c2nnc(N3CC[C@]4(C)CCN(C)C[C@]34C)nc2C)c(F)c1`, 5 nM; as for `Cc1nc(N2CC[C@]3(C)CCN(C)C[C@]23C)nnc1-c1ccc(OC(F)(F)F)cc1O`, 5 nM.

Take `Cc1nc(N2CC[C@]3(C)CCN(C)C[C@]23C)nnc1-c1ccc(C(F)(F)F)cc1O`: the EC50 came to 5 nM.
